Laboratory results from paper PMC3072408 (PLoS ONE, 2011).
“Also recorded” adds a separate entry of the source.

Legend:
ASAL = target: T1, ASAL (Allium sativum, UniProt P83886); type: binding; conditions: read-out: Dissociation constant (Kd)
T1 construct: gene LECASAL; native 25-kDa homodimer
T1 sequence (P83886 31-140): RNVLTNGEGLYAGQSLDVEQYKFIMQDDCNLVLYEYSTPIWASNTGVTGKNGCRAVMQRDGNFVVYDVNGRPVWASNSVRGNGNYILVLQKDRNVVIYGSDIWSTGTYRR

mASAL = target: T2, mASAL (Allium sativum, UniProt P83886, G129D/INS129NSNN); test: biochemical
T2 construct: gene LECASAL
Description: Dissociation Constant (Kd) of mannose-bound complex using fluorescence spectroscopy
mASAL and ASAL were separately incubated at 25°C on a Hitachi F-7000 spectrofluorimeter using a Sigma cuvette (volume: 1 ml; pathlength: 1 cm). The solutions were titrated with 10 mM mannose in phosphate buffer (pH 7.2) by adding a small aliquot at a time. Following each addition, the solution was stirred using a magnetic stirrer for 1 min and the fluorescence emission spectrum was recorded between 300 and 400 nm using 295 nm as the excitation wavelength. The excitation and emission band passes were each 5 nm. […] The equation for single-site ligand binding measured through changes in the spectroscopic signal [20] is given by [drawing 1] (1) where ΔF represents the increase or decrease in fluorescence intensity at a given concentration of the ligand, K d is the dissociation constant, and A = K dΔ Fmax. We used equation (1) to calculate the dissociation constant (K d) for binding of mannose, glucose and NAG to mASAL and ASAL.

rabbit erythrocytes = test: Hemagglutination assay; type: cell-based; conditions: 50 to 6.25 µg/ml, 2% rabbit erythrocytes, 1 hour at 37°C
Description: Blood was collected from the rabbit into a syringe pre-filled with 500-µl 0.9% NaCl solution and the blood was immediately transferred to a culture tube pre-filled with 0.9% saline. Subsequently, the erythrocyte solution was prepared by repeated washing with 0.9% saline and spun at 2500 g for 10 minutes at 4°C. After each cycle, the supernatant was carefully removed. […] The erythrocytes were resuspended in 0.9% saline as a 2% (3.5×10^8 cells/ml) cell suspension. Hemagglutination activity of the purified mASAL and /or ASAL was assayed in a 96-well microtiter U-plate according to a 2-fold serial dilution procedure (50, 25, 12.5, 6.25 µg/ml). The samples were diluted with PBS (137 mM NaCl, 2.7 mM KCl, 10 mM Na2HPO4, 1.8 mM KH2PO4; pH 7.4) at which point 50 µl of protein from each dilution was mixed with 50 µl of a 2% suspension of rabbit erythrocytes.

R. solani = conditions: 4 µg protein, 40 hours at 25°C
[1] = Man9GlcNAc2Asn, at 25°C; cited from earlier work
F. oxysporum = conditions: 4 µg protein, 40 hours at 25°C
Lipaphis erysimi = test: Insect bioassay with artificial diet; type: in vivo; conditions: second instar nymphs, survival recorded for 72 h, Probit analysis
Description: Insect bioassays were conducted using an artificial diet [9]–[11]. Twenty second instar nymphs of Lipaphis erysimi were used in multiple sets. Polycarbonate petriplates (perforated for air passage at the bottom) were used as a bioassay cage. Nymphs were released into the plates, and the upper edges of the plates were covered with fully stretched parafilm. A modified synthetic diet mixture of 200 µl, supplemented with different concentrations of ASAL and mASAL (5, 10, 15, 20, 25 µg/ml), was dispensed on the stretched parafilm membrane. Another Parafilm membrane was stretched onto this in order to form a pouch. For control plates, 20-mM TrisCl (pH 7.4) was added to the artificial diet instead of experimental proteins. For another set of control experiments, aphids were fed with only 20 mM TrisCl (pH 7.4) without the artificial diet. Each set of experiments for each dose was repeated four times. Data regarding the numbers of nymphs surviving were recorded at 12-h intervals for 72 h. The LC50 values for the toxicity against mustard aphids were determined by Probit analysis ( Table 2 ).

A. brassicicola = conditions: 4 µg protein, 40 hours at 25°C
R. solani hyphae = test: Immunolocalization assay with anti-ASAL antibody; type: cell-based, Rhizoctonia solani; conditions: 4 µg protein, 40 hours at 25°C
[2] = target: the molecule itself; test: SEC; Biosep-SEC-S-2000 column, 0.1 M sodium phosphate pH 6.8, 2 ml/min; native ASAL as control; data not shown

Molecule: OC[C@H]1OC(O)[C@H](O)[C@@H](O)[C@@H]1O (stereo partly drawn) [D-glucose]
- Kd (ASAL): 140 nM
- Kd (mASAL): 160 nM

Molecule: OC[C@H]1OC(O)[C@@H](O)[C@@H](O)[C@@H]1O (stereo partly drawn) [Mannose, D-mannose]
- Kd (ASAL): 60 nM
- Kd (mASAL): 120 nM

Molecule: CC(=O)N[C@H]1C(O)O[C@H](CO)[C@@H](O)[C@@H]1O (some centres unmarked) [NAG, N-acetyl glucosamine]
- Kd (ASAL): 300 nM
- Kd (mASAL): 110 nM

Molecule: Allium sativum leaf agglutinin [ASAL]
- hemagglutination activity (rabbit erythrocytes): agglutinated cells form a carpet
- propidium iodide uptake (fluorescence, membrane permeabilization) (R. solani): excluded propidium iodide
- binding affinity Ka [1]: 1.2e+06 M⁻¹
- propidium iodide uptake (fluorescence, membrane permeabilization) (F. oxysporum): excluded propidium iodide
- LC50 value (Lipaphis erysimi): 20.7 µg/mL
- propidium iodide uptake (fluorescence, membrane permeabilization) (A. brassicicola): excluded propidium iodide
- binding to fungal membrane (FITC green fluorescence) (R. solani hyphae): absence of any signal; also recorded: no signals were generated

B1: Allium sativum leaf agglutinin (natural protein)
chain: RNLLTNGEGLYAGQSLDVEQYKFIMQDDCNLVLYEYSTPIWASNTGVTGKNGCRAVMQRDGNFVVYDVNGRPVWASNSVRGNGNYILVLQKDRNVVIYGSDIWSTGT
- stoichiometry N [2]: 2
